Experimental data from ChEMBL document CHEMBL1201862, “PubChem BioAssay data set” (2004).
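Method: 48-hour compound exposure of cells in 96-well plates, five concentrations, linear interpolation of endpoints. Abbreviation: GI50, concentration required for 50% inhibition of growth.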 The source made the active and inactive calls. Cut-off read from the data, not from the text of the source: active = GI50 up to about 1.1 µM and inactive = higher.

Tests used:
Assay in all cases: NCI-60 cell line screen, 48 h
SK-MEL-5 = test system: SK-MEL-5
OVCAR-4 = test system: OVCAR-4
HCT-15 = test system: HCT-15
RPMI-8226 = test system: RPMI-8226
HCT-116 = test system: HCT-116
786-0 = test system: 786-0
MCF7 = test system: MCF7
HCC 2998 = test system: HCC 2998
NCI/ADR-RES = test system: NCI/ADR-RES
IGROV-1 = test system: IGROV-1
OVCAR-3 = test system: OVCAR-3
SF-539 = test system: SF-539
PC-3 = test system: PC-3
NCI-H23 = test system: NCI-H23
HOP-62 = test system: HOP-62
UACC-257 = test system: UACC-257
COLO 205 = test system: COLO 205
MDA-MB-231 = test system: MDA-MB-231
SK-MEL-28 = test system: SK-MEL-28
SK-MEL-2 = test system: SK-MEL-2

Compound	GI50 (SK-MEL-5)	GI50 (OVCAR-4)	GI50 (HCT-15) [µM]	GI50 (RPMI-8226)	GI50 (HCT-116)	GI50 (786-0)	GI50 (MCF7)	GI50 (HCC 2998)	GI50 (NCI/ADR-RES)	GI50 (IGROV-1)	GI50 (OVCAR-3)	GI50 (SF-539)	GI50 (PC-3)	GI50 (NCI-H23)	GI50 (HOP-62)	GI50 (UACC-257)	GI50 (COLO 205)	GI50 (MDA-MB-231)	GI50 (SK-MEL-28)	GI50 (SK-MEL-2)
O=C1/C(=C/c2ccc(O)c(O)c2)CCC/C1=C\c1ccc(O)c(O)c1	1.67 µM (inactive)	5.38 µM (inactive)	4.13	2.48 µM (inactive)	2.37 µM (inactive)	3.31 µM (inactive)	5.16 µM (inactive)	4.12 µM (inactive)	4.13 µM (inactive)	4.05 µM (inactive)	3.06 µM (inactive)	2.41 µM (inactive)	3.98 µM (inactive)	2.76 µM (inactive)	4.13 µM (inactive)	4.51 µM (inactive)	7.03 µM (inactive)	5.14 µM (inactive)	3.94 µM (inactive)	3.42 µM (inactive)
O=C(O)C1(CC(CCCN2CCCCC2)c2ccccc2)CCCC1 (centres undefined)	> 100 µM (inactive)	> 100 µM (inactive)	> 100	> 100 µM (inactive)	> 100 µM (inactive)	> 100 µM (inactive)	> 100 µM (inactive)	> 100 µM (inactive)	> 100 µM (inactive)	> 100 µM (inactive)	41.8 µM (inactive)	> 100 µM (inactive)	> 100 µM (inactive)	> 100 µM (inactive)	> 100 µM (inactive)	–	> 100 µM (inactive)	> 100 µM (inactive)	> 100 µM (inactive)	> 100 µM (inactive)
CC(Oc1ccc(Cl)cc1Cl)C(=O)NN1C(=O)CSC1c1ccc(Cl)cc1 (centres undefined)	49.7 µM (inactive)	35.3 µM (inactive)	> 100	35.7 µM (inactive)	57.9 µM (inactive)	53.6 µM (inactive)	36.8 µM (inactive)	54.8 µM (inactive)	> 100 µM (inactive)	36.1 µM (inactive)	54.5 µM (inactive)	20.5 µM (inactive)	38.5 µM (inactive)	79.8 µM (inactive)	33.6 µM (inactive)	48.2 µM (inactive)	> 100 µM (inactive)	27.4 µM (inactive)	67.3 µM (inactive)	56.1 µM (inactive)
CC1(C)N=c2c(ncn2-c2ccccc2)=C(C(N)=O)N1	> 100 µM (inactive)	> 100 µM (inactive)	> 100	> 100 µM (inactive)	> 100 µM (inactive)	> 100 µM (inactive)	> 100 µM (inactive)	> 100 µM (inactive)	> 100 µM (inactive)	> 100 µM (inactive)	> 100 µM (inactive)	> 100 µM (inactive)	> 100 µM (inactive)	> 100 µM (inactive)	> 100 µM (inactive)	> 100 µM (inactive)	> 100 µM (inactive)	> 100 µM (inactive)	> 100 µM (inactive)	> 100 µM (inactive)
CN(C)CCNC(=O)c1c(O)ccc2c1c1c(n2CCc2ccccc2)C(=O)c2ccccc2C1=O	2.96 µM (inactive)	11.6 µM (inactive)	4.47	2.75 µM (inactive)	3.6 µM (inactive)	4.36 µM (inactive)	3.37 µM (inactive)	1.22 µM (inactive)	13.5 µM (inactive)	8.47 µM (inactive)	12.9 µM (inactive)	5.37 µM (inactive)	12 µM (inactive)	14.4 µM (inactive)	10.6 µM (inactive)	5.37 µM (inactive)	15.8 µM (inactive)	5.27 µM (inactive)	1.98 µM (inactive)	5.87 µM (inactive)
O=C1c2ccccc2C(=O)c2sc(Nc3cc(Cl)ccc3Cl)nc21	1.53 µM (inactive)	4.16 µM (inactive)	2.94	3.22 µM (inactive)	3.3 µM (inactive)	3.61 µM (inactive)	1.7 µM (inactive)	5.86 µM (inactive)	2.63 µM (inactive)	4.15 µM (inactive)	0.74 µM (active)	3.16 µM (inactive)	3.21 µM (inactive)	4.72 µM (inactive)	15 µM (inactive)	2.51 µM (inactive)	16 µM (inactive)	1.87 µM (inactive)	6.7 µM (inactive)	11.4 µM (inactive)
COc1ccc(-c2c(C#N)c(=O)nc(SC)n2C2OCC(OC(C)=O)C(OC(C)=O)C2OC(C)=O)cc1 (centres undefined)	45 µM (inactive)	> 100 µM (inactive)	34.8	37.7 µM (inactive)	31.6 µM (inactive)	> 100 µM (inactive)	> 100 µM (inactive)	> 100 µM (inactive)	91.2 µM (inactive)	> 100 µM (inactive)	> 100 µM (inactive)	> 100 µM (inactive)	47.3 µM (inactive)	> 100 µM (inactive)	> 100 µM (inactive)	> 100 µM (inactive)	> 100 µM (inactive)	58.7 µM (inactive)	> 100 µM (inactive)	> 100 µM (inactive)
C=CCn1c(N)c(C#N)c(C#N)c1CCC	> 100 µM (inactive)	> 100 µM (inactive)	> 100	> 100 µM (inactive)	–	> 100 µM (inactive)	> 100 µM (inactive)	> 100 µM (inactive)	> 100 µM (inactive)	> 100 µM (inactive)	74.6 µM (inactive)	> 100 µM (inactive)	> 100 µM (inactive)	> 100 µM (inactive)	> 100 µM (inactive)	> 100 µM (inactive)	> 100 µM (inactive)	> 100 µM (inactive)	–	> 100 µM (inactive)
O=C(O)c1cc(C(=O)C(=O)c2cc(C(=O)O)c(O)c3ccccc23)c2ccccc2c1O	> 100 µM (inactive)	> 100 µM (inactive)	> 100	> 100 µM (inactive)	> 100 µM (inactive)	> 100 µM (inactive)	> 100 µM (inactive)	> 100 µM (inactive)	> 100 µM (inactive)	> 100 µM (inactive)	> 100 µM (inactive)	> 100 µM (inactive)	> 100 µM (inactive)	> 100 µM (inactive)	> 100 µM (inactive)	> 100 µM (inactive)	> 100 µM (inactive)	> 100 µM (inactive)	> 100 µM (inactive)	> 100 µM (inactive)
C[C@H]1C/C=C/[C@H]2[C@@H]3O[C@]3(C)[C@@H](C)[C@H]3[C@H](Cc4ccccc4)NC(=O)[C@]32OC(=O)O/C=C/[C@@](C)(O)C1=O [CYTOCHALASIN E]	0.0211 µM (active)	0.0262 µM (active)	0.0834	0.556 µM (active)	–	0.114 µM (active)	0.0292 µM (active)	0.138 µM (active)	5.69 µM (inactive)	–	0.0975 µM (active)	0.0169 µM (active)	0.0141 µM (active)	0.197 µM (active)	0.0206 µM (active)	0.263 µM (active)	–	< 0.01 µM (active)	0.2 µM (active)	0.393 µM (active)
